Results on three compounds are retold here after US10479986B2, “Nucleic acid constructs and methods for labeling and detecting nucleosomal DNA modifications” (THE BROAD INSTITUTE, INC., priority 2016, dated 2019).

In assay [1] the test system is H3K27ac levels in K562 cells. Description: Multiplexed barcoded ChIP-seq (Mint-ChIP), H3K27ac reads normalized to total H3 reads. It is filed as cell-based, human. Conditions: 48 hours treatment. From the text:
(§1) FIG. 12 is a schematic showing an example method for quantitatively normalizing sequencing data results, in accordance with certain example embodiments. The control or drug treated cells are indexed, pooled, and then split for parallel ChIP assays. The ratio between H3K27me3 reads and H3 reads is used to compare global H3K27me3 levels between sample and normalized corresponding profiles.
(§2) FIG. 14 is a set of bar graphs showing global modification levels inferred from Western blot (top) or in accordance with certain example embodiments (bottom). The respective methods were applied in parallel to the same sample of […] cells treated for 48 hours with the indicated inhibitors. The data are shown as a mean±SD of n=3 independent experiments (symbols indicate values from independent experiments).
(§3) First, procedures for simultaneously lysing and digesting chromatin from small numbers of K562 cells were modified. […]
(§4) Algorithms were developed to process Mint-ChIP seq results. First, the seq reads are de-multiplexed by index #2 to yield separate read files for each ChIP assay. Each of these read files is then further de-multiplexed by index #1 (T7-adapter barcode) to yield separate files for each sample. […] More than 90% of reads were successfully assigned to one of the T7-adapter barcodes (FIG. 5). […]

The test system of assay [2] is H3K27me3 levels in K562 cells. Put plainly: Western blot of H3K27me3 levels in treated K562 cells (acid extracted histones). It is filed as cell-based, human. The settings on record: 48 hr treatment. From the text:
(§5) FIG. 13 is a western blot showing H3K27ac and H3K27me3 levels in K562 cells following treatment with the p300 inhibitor C646 or the EZH2 inhibitor […] (compared to a DMSO control). The total H3 is shown as loading control.
Data are typically normalized based on read numbers (“reads per million” or RPM). This presents complications when comparing between samples. To address this shortcoming, exogenous spike-in controls or semisynthetic standards were recently introduced (Bonhoure et al., 2014; Grzybowski et al., 2015; Orlando et al., 2014). The methods disclosed herein were assessed to determine whether the consistency of pooled sample processing could allow the capture of global modification levels without spike-in controls. […] After sequencing, the number of reads for H3K27ac and H3K27me3 were normalized to the number of reads for total H3.
It is noted the methods disclosed herein are preferential to open regions, as these are more sensitive to MNase digestion. This is evident in the relatively higher proportion of H3 reads that align to euchromatic regions (2-fold enrichment; compare to 1.2-fold enrichment in conventional ChIP-seq). […] To test this, Western blots to quantify H3K27me3 levels were used in MNase digested chromatin from K562 cells treated with GSK126.

Assay [3] relates to H3K27ac levels in K562 cells. Description: Western blot of H3K27ac levels in treated K562 cells. It is filed as cell-based, human. Conditions: 48 hr treatment, vs DMSO control.
Description: as §5
Data are typically normalized based on read numbers (“reads per million” or RPM). This presents complications when comparing between samples. To address this shortcoming, exogenous spike-in controls or semisynthetic standards were recently introduced (Bonhoure et al., 2014; Grzybowski et al., 2015; Orlando et al., 2014). The methods disclosed herein were assessed to determine whether the consistency of pooled sample processing could allow the capture of global modification levels without spike-in controls. To this end, an additional IP was included with antibody to total H3, which was used as a normalization factor for the modifications (FIG. 12). The approach for measuring global changes was tested using small molecule inhibitors. K562 cells were treated with the p300 inhibitor C646 or the EZH2 inhibitor GSK126 (Ferrari et al., 2013; McCabe et al., 2012a). Western blots confirmed that H3K27ac levels were reduced by the acetyltransferase inhibitor C646, […] (FIG. 13). […] After sequencing, the number of reads for H3K27ac and H3K27me3 were normalized to the number of reads for total H3.

In a further assay the test system is SKM-1 cells. Description: Viable cell counts following GSK126 treatment. It is filed as cell-based. The settings on record: SKM-1, after 3 days. As to the method:
(§6) FIG. 24 provides a set of bar plots depicting viable cell counts following 72 hour GSK126 treatment of Pfeiffer, SKM-1, and Toledo. The data are shown as mean±SD of technical triplicates×n=2 independent experiments (*p<0.05, **p<0.01, and ****p<0.0001).
(§7) The respective mutant lines were also treated with the EZH2 inhibitor GSK126, which reduced global H3K27me3 levels (Pfeiffer: 3.4-fold; SKM-1: 3.8-fold; and Toledo: 1.4-fold after 72 hr). Pfeiffer cells, which had the largest absolute decrease in H3K27me3, were the most sensitive to GSK126 treatment (Pfeiffer: 56±11% cell death after 3 days; SKM-1: 15±10%; and Toledo: 2±15%; FIG. 24) (McCabe et al., 2012a). H3K27me3 peaks were called in the naive and drug treated cell lines. Although treatment-associated changes in H3K27me3 are masked by conventional normalization, these changes are readily evident using the quantitative normalization inherent to the methods disclosed herein (FIG. 23). Thus, the methods disclosed herein can quantify differences in global chromatin landscapes of cancer cells representing different genotypes or drug treatments.

Another assay relates to Toledo cells. Put plainly: Viable cell counts following GSK126 treatment. It counts as cell-based. Conditions: after 3 days. As to the method:
as §6, §7

A further assay relates to Pfeiffer cells. Put plainly: Viable cell counts following GSK126 treatment. It counts as cell-based. The settings on record: after 3 days. As to the method:
as §6, §7

In assay [4] the test system is H3K27me3 levels in K562 cells. Put plainly: Multiplexed barcoded ChIP-seq (Mint-ChIP), H3K27me3 reads normalized to total H3 reads. It is filed as cell-based, human. The settings on record: 48 hours treatment.
Description: as §1, §2, §3, §4

Assay [5] has as its system H3K27me3 levels in Pfeiffer cells. Put plainly: Mint-ChIP global H3K27me3 levels (ratio to H3 reads) after GSK126. It counts as cell-based. The settings on record: after 72 hr. As to the method: (§8) FIG. 20 provides a set of heat maps comparing H3K27me3 (A) and H3K27ac (B) levels in different cell lines treated with GSK126, as quantified in accordance with certain example embodiments. The experiments were performed using two different MNase concentrations.
(§9) The methods disclosed herein were used to quantitatively compare H3K27me3 and H3K27ac landscapes in these three cell lines. First, the global modification levels based on the ratio of H3K27me3 (or H3K27ac) reads to H3 reads were quantified. H3K27me3 levels were 5.1-fold greater in Pfeiffer than the other cell lines, consistent with its EZH2 activating mutation (FIG. 20).
as §7

The subject of assay [6] is H3K27me3 levels in SKM-1 cells. Described as above. It is filed as cell-based. The settings on record: SKM-1, after 72 hr. As to the method:
as §8, §9, §7

Assay [7] relates to H3K27me3 levels in Toledo cells. The assay is described as above. Conditions: after 72 hr. It is filed as cell-based. As to the method: as §8, §9, §7
Assay [8] has as its system H3K27me3 levels in K562 cells. Put plainly: Western blot of H3K27me3 in MNase digested chromatin. It is filed as cell-based, human. Conditions: 48 hr of treatment. From the text:
It is noted the methods disclosed herein are preferential to open regions, as these are more sensitive to MNase digestion. This is evident in the relatively higher proportion of H3 reads that align to euchromatic regions (2-fold enrichment; compare to 1.2-fold enrichment in conventional ChIP-seq). These ratios are small relative to enrichments in ChIP-seq peaks, which range from 5- to 100-fold. However, they could account for increased sensitivity to early changes in H3K27me3 if these were also preferential to euchromatin. To test this, Western blots to quantify H3K27me3 levels were used in MNase digested chromatin from K562 cells treated with GSK126.

Assay [9] deals with H3K4me3 levels in K562 cells. Put plainly: Western blot of H3K4me3 levels in treated K562 cells. It is filed as cell-based, human. Conditions: 96 hr treatment, vs DMSO. As to the method: FIG. 16 are Western blots showing increased H3K4me3 levels in K562 cells following treatment with the demethylase inhibitor KDM5-C70. The total H3 is shown as loading control and n=3 experiments are shown.
(§10) (Labelle et al., 2014). The chromatin of K562 cells treated with DMSO or KDM5-C70 for 96 hr were barcoded and pooled. H3K4me3 and total H3 were then assayed. After sequencing, normalization of the number of H3K4me3 reads to the number of H3 reads reflected global modification levels and was consistent between experiments and also with Western blot analysis (FIG. 16 and FIG. 17). […] This effect was obscured when the data were subjected to conventional RPM normalization (FIG. 18).
On the technique in general: Immunoblotting shows a protein as a band on a membrane.

Another assay deals with H3K4me3 in K562 cells. Description: Multiplexed barcoded ChIP-seq (Mint-ChIP), H3K4me3 profiles with quantitative normalization to total H3. It counts as cell-based, human. The settings on record: 96 hr treatment, vs DMSO.
Description: FIG. 17 is a set of graphs showing global H3K4me3 levels inferred in accordance with certain example embodiments. The data are shown as ±SD of four replicates n=3 experiments are shown.
FIG. 18 is a graph showing H3K4me3 profiles scaled by conventional or quantitative normalization.
FIG. 19 provides a composite plot depicting average H3K4me3 in K562 cells treated with DMSO or KDM5-C70 (A) with 10 kb regions surrounding the centers of 36,875 peaks that are shown; a bar blot showing the fraction of peaks within size windows (B); and a Venn diagram showing the number of peaks detected in K562 cells treated with DMSO or KDM5-70 (C). The data were generated in accordance with certain example embodiments.
as §10

As to `CC1=NN(c2ccc(C(=O)O)cc2)C(=O)/C1=C\c1ccc(-c2cc(C)c(C)cc2[N+](=O)[O-])o1` [C646], the “ratio between H3K27ac reads and total H3 reads” value in assay [1] is on record as “decreased”. The “H3K27me3 levels (Western blot)” value in [2] is “did not detect significant changes”. Further, the “H3K27ac levels (Western blot)” value in assay [3] is “reduced”.

On to `CC[C@H](C)n1cc(C)c2c(C(=O)NCc3c(C)cc(C)[nH]c3=O)cc(-c3ccc(N4CCNCC4)nc3)cc21` [GSK126], for which the cell death is listed as 15±10% in the assay with SKM-1 cells, 2±15% in the assay with Toledo cells and 56±11% in the assay with Pfeiffer cells. Besides, the “H3K27me3 levels (H3K27me3 reads normalized to total H3 reads)” value in assay [4] was “consistent reduction”. Also, the “reduction of global H3K27me3 levels” value stood at 3.4 fold in assay [5], 3.8 fold in assay [6] and 1.4 fold in [7]. Besides, the “ratio between H3K27ac reads and total H3 reads” value in [1] was “increased”. For the same compound, the “H3K27me3 levels (Western blot)” value in [2] was “did not detect significant changes”. Moreover, the “H3K27me3 levels (Western blot, MNase digested chromatin)” value in assay [8] is given as “Consistent reductions”. In addition, the “H3K27ac levels (Western blot)” value in assay [3] was “increased”.

For the compound `CCOC(=O)c1ccnc(CNCC(=O)N(CC)CCN(C)C)c1` [KDM5-C70], the “H3K4me3 levels (Western blot)” value in assay [9] was “increased”. For the same compound, the “H3K4me3 coverage, domains and peaks” value in the assay on H3K4me3 in K562 cells is “increases H3K4me3 coverage and widens existing domains, while also generating new H3K4me3 peaks”. Also, the “H3K4me3 peak intensity (tracks scaled by inferred global levels)” value in the assay on H3K4me3 in K562 cells (quantitative normalization) was “increased peak intensity”.
